We go through 18 molecules from patent US7910751B2, “Heterocyclidene acetamide derivative” (Mochida Pharmaceutical Co., Ltd., priority 2005, dated 2011).

SMILES strings stand for the structures.

T1 sequence (Q8NER1 whole entry): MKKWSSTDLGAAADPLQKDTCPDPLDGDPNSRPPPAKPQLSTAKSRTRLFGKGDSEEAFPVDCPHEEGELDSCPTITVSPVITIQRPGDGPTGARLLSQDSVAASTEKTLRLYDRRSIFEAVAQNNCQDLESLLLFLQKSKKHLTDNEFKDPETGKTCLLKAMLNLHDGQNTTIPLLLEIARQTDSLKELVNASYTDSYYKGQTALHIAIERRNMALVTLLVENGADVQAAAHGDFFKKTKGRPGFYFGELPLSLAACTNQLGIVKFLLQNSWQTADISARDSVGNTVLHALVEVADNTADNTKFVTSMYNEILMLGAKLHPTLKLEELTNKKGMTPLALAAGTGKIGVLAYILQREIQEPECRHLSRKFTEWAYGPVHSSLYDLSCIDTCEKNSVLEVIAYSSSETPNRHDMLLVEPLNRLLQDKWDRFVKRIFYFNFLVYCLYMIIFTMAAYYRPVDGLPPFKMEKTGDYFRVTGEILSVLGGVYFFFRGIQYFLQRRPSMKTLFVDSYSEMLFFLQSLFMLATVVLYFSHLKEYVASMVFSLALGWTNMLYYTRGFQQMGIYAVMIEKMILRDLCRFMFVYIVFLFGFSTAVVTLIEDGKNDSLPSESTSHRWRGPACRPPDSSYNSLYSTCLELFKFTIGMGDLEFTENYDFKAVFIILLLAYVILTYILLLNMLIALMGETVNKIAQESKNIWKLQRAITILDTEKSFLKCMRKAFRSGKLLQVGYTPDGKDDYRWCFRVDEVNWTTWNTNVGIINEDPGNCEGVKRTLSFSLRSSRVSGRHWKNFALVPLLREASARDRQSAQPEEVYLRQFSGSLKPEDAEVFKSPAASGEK

This test concerns the target T1, human TRPV1 (Homo sapiens, UniProt Q8NER1).
T1 construct: expressed in transfected cells; host or cells: CHO-K1
The test is described as follows: Measurement of capsaicin-induced Ca influx in human TRPV1 transformed CHO cell line using FDSS-6000. The class given is cell-based. The conditions noted are these: concentration at which the capsaicin concentration-reaction curve is shifted two times to the right, human TRPV1 transformed CHO cells.
As for `O=C(/C=C1\CCCOc2cc(C(F)(F)F)ccc21)NCc1ccc2c(c1)OCCO2` [Example 32, (E)-2-(8-trifluoromethyl-3,4-dihydrobenzo[b]oxepin-5(2H)-ylidene)-N-((2,3-dihydrobenzo[b][1,4]dioxin-6-yl)methyl)acetamide], the “A2 VALUE” is “B (compounds having an A2 value of 100 nM or more are represented by B)”.
Consider `O=C(/C=C1\CCN(c2ccc(Cl)cc2)c2cc(C(F)(F)F)ccc21)Nc1ccc2cccnc2c1` [Example 57, (E)-2-(1-(4-chlorophenyl)-7-trifluoromethyl-2,3-dihydro-4(1H)-ylidene)-N-(quinolin-7-yl)acetamide], for which the “A2 VALUE” is on record as “A (compounds of the present invention having an A2 value of less than 100 nM are represented by A)”.
Turning to `O=C(/C=C1\CCCOc2cc(C(F)(F)F)ccc21)Nc1cccc2c1CC(O)CN2` (stereo not drawn) [Example 219, (E)-2-(8-trifluoromethyl-3,4-dihydrobenzo[b]oxepin-5(2H)-ylidene)-N-(3-hydroxy-1,2,3,4-tetrahydroquinolin-5-yl)acetamide], the “A2 VALUE” is “A (compounds of the present invention having an A2 value of less than 100 nM are represented by A)”.
As for `CC(C)(C)c1ccc2c(c1)OCC/C2=C\C(=O)Nc1cccc2cnccc12` [Example 4, (E)-2-(7-tert-butyl-chroman-4-ylidene)-N-(isoquinolin-5-yl)acetamide], the “A2 VALUE” is reported as “A (compounds of the present invention having an A2 value of less than 100 nM are represented by A)”.
Under `Cn1ccc2cc(NC(=O)/C=C3\CCCOc4cc(C(F)(F)F)ccc43)ccc21` [Example 149, (E)-2-(8-trifluoromethyl-3,4-dihydrobenzo[b]oxepin-5(2H)-ylidene)-N-(1-methylindol-5-yl)acetamide] stands “A (compounds of the present invention having an A2 value of less than 100 nM are represented by A)”.
For the molecule `O=C(/C=C1\CCCOc2cc(C(F)(F)F)ccc21)Nc1cccc2cn[nH]c12` [Example 254, (E)-2-(8-trifluoromethyl-3,4-dihydrobenzo[b]oxepin-5(2H)-ylidene)-N-(1H-indazol-7-yl)acetamide], the “A2 VALUE” is on record as “A (compounds of the present invention having an A2 value of less than 100 nM are represented by A)”.
Regarding `O=C(/C=C1\CCCOc2cc(C(F)(F)F)ccc21)Nc1ccc2c(ccn2CCO)c1` [Example 164], the “A2 VALUE” was “A (compounds of the present invention having an A2 value of less than 100 nM are represented by A)”.
`O=C(/C=C1\CCN(C(=O)C2CCOCC2)c2cc(C(F)(F)F)ccc21)Nc1ccc2cccnc2c1` [Example 53, (E)-2-(7-trifluoromethyl-2,3-dihydro-1-(4-pyranoyl)quinolin-4(1H)-ylidene)-N-(quinolin-7-yl)acetamide]: the “A2 VALUE” is recorded as “A (compounds of the present invention having an A2 value of less than 100 nM are represented by A)”.
Regarding `O=C(/C=C1\CC2(CCC2)Oc2cc(C(F)(F)F)ccc21)Nc1cccc2c1CC(O)CC2` (stereo not drawn) [Example 251, (E)-2-(7-trifluoromethyl-2,2-cyclobutylchroman-4-ylidene)-N-(7-hydroxy-5,6,7,8-tetrahydronaphthalen-1-yl)acetamide], the “A2 VALUE” is given as “A (compounds of the present invention having an A2 value of less than 100 nM are represented by A)”.
As to `O=C(/C=C1\CCCOc2cc(C(F)(F)F)ccc21)Nc1cccc2c1CC(O)CC2` (stereo not drawn) [Example 64, (E)-2-(8-trifluoromethyl-3,4-dihydrobenzo[b]oxepin-5-(2H)-ylidene)-N-(7-hydroxy-5,6,7,8-tetrahydronaphthalen-1-yl)acetamide], the “A2 VALUE” is “A (compounds of the present invention having an A2 value of less than 100 nM are represented by A)”.
Turning to `CC1(O)CCc2cccc(NC(=O)/C=C3\CCCOc4cc(C(F)(F)F)ccc43)c2C1` (stereo not drawn) [Example 220, (E)-2-(8-trifluoromethyl-3,4-dihydrobenzo[b]oxepin-5(2H)-ylidene)-N-(7-hydroxy-7-methyl-5,6,7,8-tetrahydronaphthalen-1-yl)acetamide], the “A2 VALUE” was “A (compounds of the present invention having an A2 value of less than 100 nM are represented by A)”.
As to `O=C(/C=C1\CCCOc2cc(C(F)(F)F)ccc21)Nc1cccc2c1CC(O)C2` (stereo not drawn) [Example 163, (E)-2-(8-trifluoromethyl-3,4-dihydrobenzo[b]oxepin-5(2H)-ylidene)-N-(indan-2-ol-4-yl)acetamide], the “A2 VALUE” is “A (compounds of the present invention having an A2 value of less than 100 nM are represented by A)”.
Under `O=C(/C=C1\CCCOc2cc(C(F)(F)F)ccc21)Nc1ccc2c(c1)C(=O)NC2` [Example 166, (E)-2-(8-trifluoromethyl-3,4-dihydrobenzo[b]oxepin-5(2H)-ylidene)-N-(2,3-dihydro-isoindol-1-on-6-yl)acetamide] stands “A (compounds of the present invention having an A2 value of less than 100 nM are represented by A)”; under `CCn1c(NC(=O)/C=C2\CCCOc3cc(C(F)(F)F)ccc32)nc2ccccc21` [Example 43, (E)-N-(1-ethyl-1H-benzo[d]imidazolo-2-yl)-2-(8-trifluoromethyl-3,4-dihydrobenzo[b]oxepin-5(2H)-ylidene)acetamide], “B (compounds having an A2 value of 100 nM or more are represented by B)”; under `O=C(/C=C1\CCN(C2CCCCC2)c2cc(C(F)(F)F)ccc21)Nc1ccc2cccnc2c1` [Example 97, (E)-2-(7-trifluoromethyl-2,3-dihydro-1-cyclohexylquinolin-4(1H)-ylidene)-N-(quinolin-7-yl)acetamide], “A (compounds of the present invention having an A2 value of less than 100 nM are represented by A)”.
In the case of `Cc1ccc(S(=O)(=O)N2CC/C(=C\C(=O)Nc3ccc4cccnc4c3)c3ccc(C(F)(F)F)cc32)cc1` [Example 98, (E)-2-(7-trifluoromethyl-2,3-dihydro-1-(4-methylbenzenesulfonyl)quinolin-4(1H)-ylidene)-N-(quinolin-7-yl)acetamide], the “A2 VALUE” is “A (compounds of the present invention having an A2 value of less than 100 nM are represented by A)”.
For the molecule `CCC(C)CC(=O)N1CC/C(=C\C(=O)Nc2ccc3cccnc3c2)c2ccc(C(F)(F)F)cc21` (stereo not drawn) [Example 79, (E)-2-(1-(3-methylpentanoyl)-7-trifluoromethyl-2,3-dihydroquinolin-4(1H)-ylidene)-N-(quinolin-7-yl)acetamide], the “A2 VALUE” is on record as “A (compounds of the present invention having an A2 value of less than 100 nM are represented by A)”.
On to `O=C(/C=C1\CCCOc2cc(C(F)(F)F)ccc21)Nc1cccc2ccc(O)cc12` [Example 18, (E)-2-(8-trifluoromethyl-3,4-dihydrobenzo[b]oxepin-5(2H)-ylidene)-N-(7-hydroxynaphthalen-1-yl)acetamide], for which the “A2 VALUE” was “A (compounds of the present invention having an A2 value of less than 100 nM are represented by A)”.
